Where two headings read alike, the source gives them in different places.
Key:
Experiment in all cases: β-arrestin based GPCR screen (PathHunter / GPCRmax), agonist mode
Type in all cases: cell-based
Design in all cases: host or cells: PathHunter cell lines
168 GPCRs [1] = molecular target: 168 GPCRs (Homo sapiens, UniProt O95977)
Method: (§1) For agonist determination, cells were incubated with sample to induce response. […] Vehicle concentration was 1%.

168 GPCRs [2] = molecular target: 168 GPCRs (Homo sapiens, UniProt P08172); settings: CHRM2, Agonist
Method: as §1

168 GPCRs [3] = molecular target: 168 GPCRs (Homo sapiens, UniProt P08588); settings: ADRB1, Agonist
Method: as §1

168 GPCRs [4] = molecular target: T1, 168 GPCRs (Homo sapiens, UniProt P0DMS8); settings: ADORA3, Agonist
T1 sequence (P0DMS8 1-318): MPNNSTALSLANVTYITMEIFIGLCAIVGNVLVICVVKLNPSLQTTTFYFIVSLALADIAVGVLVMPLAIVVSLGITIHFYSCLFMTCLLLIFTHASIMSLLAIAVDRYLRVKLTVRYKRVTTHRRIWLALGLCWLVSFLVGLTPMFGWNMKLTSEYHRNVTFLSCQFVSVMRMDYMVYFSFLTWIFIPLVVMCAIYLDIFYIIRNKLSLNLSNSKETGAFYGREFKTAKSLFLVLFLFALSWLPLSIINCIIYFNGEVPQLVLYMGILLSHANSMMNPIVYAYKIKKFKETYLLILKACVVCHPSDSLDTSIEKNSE
Method: as §1

168 GPCRs [5] = molecular target: 168 GPCRs (Homo sapiens, UniProt P30874)
Method: as §1

168 GPCRs [6] = molecular target: 168 GPCRs (Homo sapiens, UniProt P30988); settings: Agonist
Method: as §1

168 GPCRs [7] = molecular target: 168 GPCRs (Homo sapiens, UniProt P30989)
Method: as §1

168 GPCRs [8] = molecular target: 168 GPCRs (Homo sapiens, UniProt P46091)
Method: as §1

168 GPCRs [9] = molecular target: 168 GPCRs (Homo sapiens, UniProt P47872); settings: SCTR
Method: as §1

168 GPCRs [10] = molecular target: 168 GPCRs (Homo sapiens, UniProt P47901); settings: AVPR1B, Agonist
Method: as §1

168 GPCRs [11] = molecular target: 168 GPCRs (Homo sapiens, UniProt P49019); settings: GPR109B
Method: as §1

168 GPCRs [12] = molecular target: 168 GPCRs (Homo sapiens, UniProt P49146); settings: NPY2R
Method: as §1

168 GPCRs [13] = molecular target: 168 GPCRs (Homo sapiens, UniProt P51686); settings: CCR9, Agonist
Method: as §1

168 GPCRs [14] = molecular target: 168 GPCRs (Homo sapiens, UniProt Q8TDS5)
Method: as §1

168 GPCRs [15] = molecular target: 168 GPCRs (Homo sapiens, UniProt Q8TDV5)
Method: as §1

168 GPCRs [16] = molecular target: 168 GPCRs (Homo sapiens, UniProt Q969F8); settings: KISS1R
Method: as §1

168 GPCRs [17] = molecular target: 168 GPCRs (Homo sapiens, UniProt Q96G91)
Method: as §1

168 GPCRs [18] = molecular target: 168 GPCRs (Homo sapiens, UniProt Q99500)
Method: as §1

168 GPCRs [19] = molecular target: 168 GPCRs (Homo sapiens, UniProt Q9HB89); settings: NMU1R
Method: as §1

168 GPCRs [20] = molecular target: 168 GPCRs (Homo sapiens, UniProt Q9HC97)
Method: as §1

[21] = CALCR-RAMP2, read-out: % Activity

168 GPCRs (Homo sapiens, UniProt P30988), sequence (P30988 25-474): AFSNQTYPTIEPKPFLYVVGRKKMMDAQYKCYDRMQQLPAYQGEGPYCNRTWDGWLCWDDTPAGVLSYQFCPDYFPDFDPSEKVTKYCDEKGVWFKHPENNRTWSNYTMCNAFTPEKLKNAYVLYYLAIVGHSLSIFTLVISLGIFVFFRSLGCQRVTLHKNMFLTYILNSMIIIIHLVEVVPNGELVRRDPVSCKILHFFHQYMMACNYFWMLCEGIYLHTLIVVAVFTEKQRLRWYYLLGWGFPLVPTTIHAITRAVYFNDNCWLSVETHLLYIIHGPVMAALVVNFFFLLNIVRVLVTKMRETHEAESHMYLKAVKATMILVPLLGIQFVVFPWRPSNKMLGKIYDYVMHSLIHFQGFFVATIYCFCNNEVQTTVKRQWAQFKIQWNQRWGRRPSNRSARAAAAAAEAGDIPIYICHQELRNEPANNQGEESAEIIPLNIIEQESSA
168 GPCRs (Homo sapiens, UniProt P51686), sequence (P51686 whole entry): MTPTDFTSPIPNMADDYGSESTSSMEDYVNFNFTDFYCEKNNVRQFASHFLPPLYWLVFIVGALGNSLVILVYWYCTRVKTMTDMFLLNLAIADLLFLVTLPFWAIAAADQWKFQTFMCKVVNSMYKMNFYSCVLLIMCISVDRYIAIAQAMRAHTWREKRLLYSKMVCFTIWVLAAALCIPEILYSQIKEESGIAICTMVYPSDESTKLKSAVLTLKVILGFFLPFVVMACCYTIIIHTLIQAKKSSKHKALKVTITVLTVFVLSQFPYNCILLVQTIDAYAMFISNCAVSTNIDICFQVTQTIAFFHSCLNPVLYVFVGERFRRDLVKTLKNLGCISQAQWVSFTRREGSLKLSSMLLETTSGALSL
168 GPCRs (Homo sapiens, UniProt Q8TDV5), sequence (Q8TDV5 whole entry): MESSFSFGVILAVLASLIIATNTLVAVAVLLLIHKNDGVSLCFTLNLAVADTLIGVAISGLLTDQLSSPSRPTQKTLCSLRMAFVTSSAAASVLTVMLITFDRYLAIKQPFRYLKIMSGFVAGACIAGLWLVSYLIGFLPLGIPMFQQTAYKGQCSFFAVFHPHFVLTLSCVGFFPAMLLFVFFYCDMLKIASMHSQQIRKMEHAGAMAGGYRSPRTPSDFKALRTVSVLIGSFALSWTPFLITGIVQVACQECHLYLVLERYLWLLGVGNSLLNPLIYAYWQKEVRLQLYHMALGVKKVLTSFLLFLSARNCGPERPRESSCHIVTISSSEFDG
168 GPCRs (Homo sapiens, UniProt Q99500), sequence (Q99500 whole entry): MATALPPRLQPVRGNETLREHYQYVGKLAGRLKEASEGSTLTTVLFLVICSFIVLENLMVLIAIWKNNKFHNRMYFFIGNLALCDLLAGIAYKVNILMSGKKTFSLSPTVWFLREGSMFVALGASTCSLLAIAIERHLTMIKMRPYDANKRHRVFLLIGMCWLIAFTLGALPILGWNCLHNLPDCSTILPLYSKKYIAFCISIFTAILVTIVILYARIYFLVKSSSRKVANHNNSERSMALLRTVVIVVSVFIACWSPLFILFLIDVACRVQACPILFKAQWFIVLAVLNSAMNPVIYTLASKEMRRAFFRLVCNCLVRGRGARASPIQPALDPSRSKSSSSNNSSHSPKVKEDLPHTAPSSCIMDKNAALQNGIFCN
168 GPCRs (Homo sapiens, UniProt Q96G91), sequence (Q96G91 whole entry): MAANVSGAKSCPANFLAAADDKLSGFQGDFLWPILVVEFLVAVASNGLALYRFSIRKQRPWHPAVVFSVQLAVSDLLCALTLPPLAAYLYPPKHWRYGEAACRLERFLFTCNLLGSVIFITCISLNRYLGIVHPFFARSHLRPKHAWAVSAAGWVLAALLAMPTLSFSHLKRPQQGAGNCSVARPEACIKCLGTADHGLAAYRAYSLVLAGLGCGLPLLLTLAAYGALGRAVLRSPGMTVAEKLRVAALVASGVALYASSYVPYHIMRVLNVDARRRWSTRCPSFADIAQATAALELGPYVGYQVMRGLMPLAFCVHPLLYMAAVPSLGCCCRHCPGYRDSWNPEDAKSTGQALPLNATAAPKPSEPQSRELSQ
168 GPCRs (Homo sapiens, UniProt P47872), sequence (P47872 23-440): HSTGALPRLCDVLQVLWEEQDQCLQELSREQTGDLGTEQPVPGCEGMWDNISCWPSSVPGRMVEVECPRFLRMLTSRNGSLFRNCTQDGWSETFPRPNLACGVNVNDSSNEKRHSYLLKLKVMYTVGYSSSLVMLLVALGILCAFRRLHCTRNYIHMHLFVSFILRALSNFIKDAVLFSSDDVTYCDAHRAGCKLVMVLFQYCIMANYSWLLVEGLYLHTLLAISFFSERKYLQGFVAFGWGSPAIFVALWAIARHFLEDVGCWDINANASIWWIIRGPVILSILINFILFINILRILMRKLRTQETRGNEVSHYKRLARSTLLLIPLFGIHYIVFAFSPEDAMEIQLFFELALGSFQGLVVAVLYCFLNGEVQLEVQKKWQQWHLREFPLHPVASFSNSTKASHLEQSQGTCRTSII
168 GPCRs (Homo sapiens, UniProt P08172), sequence (P08172 whole entry): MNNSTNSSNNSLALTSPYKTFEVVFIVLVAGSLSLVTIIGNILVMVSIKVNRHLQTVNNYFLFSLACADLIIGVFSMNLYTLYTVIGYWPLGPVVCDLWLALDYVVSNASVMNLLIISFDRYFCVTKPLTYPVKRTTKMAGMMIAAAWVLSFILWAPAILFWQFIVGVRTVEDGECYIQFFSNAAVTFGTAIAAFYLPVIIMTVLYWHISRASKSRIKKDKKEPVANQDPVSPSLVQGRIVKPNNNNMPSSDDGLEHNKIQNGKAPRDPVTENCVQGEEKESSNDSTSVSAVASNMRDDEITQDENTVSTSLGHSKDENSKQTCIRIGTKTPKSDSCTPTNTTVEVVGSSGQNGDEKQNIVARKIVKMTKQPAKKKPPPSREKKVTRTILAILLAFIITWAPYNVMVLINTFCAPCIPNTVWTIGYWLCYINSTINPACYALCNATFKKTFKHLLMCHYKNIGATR
168 GPCRs (Homo sapiens, UniProt Q9HC97), sequence (Q9HC97 whole entry): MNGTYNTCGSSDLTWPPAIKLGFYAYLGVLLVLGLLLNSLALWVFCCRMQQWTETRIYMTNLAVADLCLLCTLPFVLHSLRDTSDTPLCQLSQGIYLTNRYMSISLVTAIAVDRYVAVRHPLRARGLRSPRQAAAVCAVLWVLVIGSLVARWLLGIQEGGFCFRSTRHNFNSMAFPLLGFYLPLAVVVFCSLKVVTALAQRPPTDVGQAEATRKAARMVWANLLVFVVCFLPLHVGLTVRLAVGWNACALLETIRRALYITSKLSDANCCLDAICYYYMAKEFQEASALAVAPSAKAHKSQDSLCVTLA
168 GPCRs (Homo sapiens, UniProt P08588), sequence (P08588 whole entry): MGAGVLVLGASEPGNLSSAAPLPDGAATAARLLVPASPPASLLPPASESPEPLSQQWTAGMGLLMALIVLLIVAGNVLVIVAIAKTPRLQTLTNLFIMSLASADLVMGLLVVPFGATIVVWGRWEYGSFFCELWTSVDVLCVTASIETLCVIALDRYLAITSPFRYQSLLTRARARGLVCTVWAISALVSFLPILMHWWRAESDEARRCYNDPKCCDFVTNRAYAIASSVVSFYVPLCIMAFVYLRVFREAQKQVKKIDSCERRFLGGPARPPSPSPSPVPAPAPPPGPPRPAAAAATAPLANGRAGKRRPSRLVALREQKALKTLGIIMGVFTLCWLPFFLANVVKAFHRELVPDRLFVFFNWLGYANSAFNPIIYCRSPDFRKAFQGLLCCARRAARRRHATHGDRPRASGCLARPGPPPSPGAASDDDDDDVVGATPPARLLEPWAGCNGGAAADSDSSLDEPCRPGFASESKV
168 GPCRs (Homo sapiens, UniProt Q8TDS5), sequence (Q8TDS5 whole entry): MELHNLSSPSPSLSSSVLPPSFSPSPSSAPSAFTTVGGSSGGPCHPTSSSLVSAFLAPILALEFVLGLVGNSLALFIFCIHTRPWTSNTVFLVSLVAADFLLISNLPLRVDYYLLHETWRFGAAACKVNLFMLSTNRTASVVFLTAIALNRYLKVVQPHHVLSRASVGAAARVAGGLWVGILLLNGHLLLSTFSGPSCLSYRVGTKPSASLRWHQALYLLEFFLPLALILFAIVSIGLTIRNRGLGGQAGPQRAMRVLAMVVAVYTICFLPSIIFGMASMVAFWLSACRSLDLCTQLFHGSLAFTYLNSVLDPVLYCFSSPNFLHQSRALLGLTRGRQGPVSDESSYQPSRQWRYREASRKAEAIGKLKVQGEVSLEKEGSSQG
168 GPCRs (Homo sapiens, UniProt Q969F8), sequence (Q969F8 whole entry): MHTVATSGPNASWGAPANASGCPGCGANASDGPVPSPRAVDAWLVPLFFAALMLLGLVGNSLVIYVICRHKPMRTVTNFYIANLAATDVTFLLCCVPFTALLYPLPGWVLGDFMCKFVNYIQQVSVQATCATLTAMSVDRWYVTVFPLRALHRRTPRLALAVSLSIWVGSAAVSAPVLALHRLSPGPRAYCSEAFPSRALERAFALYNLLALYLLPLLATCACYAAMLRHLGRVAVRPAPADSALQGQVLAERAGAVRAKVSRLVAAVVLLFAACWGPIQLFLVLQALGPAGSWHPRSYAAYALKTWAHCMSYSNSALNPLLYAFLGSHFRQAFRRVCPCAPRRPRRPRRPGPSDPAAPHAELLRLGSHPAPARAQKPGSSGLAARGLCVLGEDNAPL
168 GPCRs (Homo sapiens, UniProt P49019), sequence (P49019 whole entry): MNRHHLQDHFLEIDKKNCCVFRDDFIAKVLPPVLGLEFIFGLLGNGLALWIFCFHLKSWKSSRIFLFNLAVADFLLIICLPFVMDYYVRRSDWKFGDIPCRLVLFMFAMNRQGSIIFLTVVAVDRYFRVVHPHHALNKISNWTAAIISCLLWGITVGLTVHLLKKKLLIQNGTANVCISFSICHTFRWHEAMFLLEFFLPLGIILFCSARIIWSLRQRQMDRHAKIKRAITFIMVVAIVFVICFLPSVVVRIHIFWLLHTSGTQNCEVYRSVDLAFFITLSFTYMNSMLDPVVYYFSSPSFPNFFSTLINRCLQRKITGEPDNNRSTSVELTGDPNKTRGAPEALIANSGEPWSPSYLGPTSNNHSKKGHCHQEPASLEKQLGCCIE

## CNC(C)C(=O)c1ccc2c(c1)OCO2 (centres unmarked) [methylone, 3,4-methylenedioxy-N-methylcathinone]
168 GPCRs [1]; EDG6, Agonist mode, 10 uM
  activity at 10 µM: 0.3%
168 GPCRs [1]; EDG6, Agonist, 1 uM
  activity at 1 µM: -1.7%
168 GPCRs [2]; 1 uM
  activity at 1 µM: -0.2%
168 GPCRs [2]; 10 uM
  activity at 10 µM: 0.2%
168 GPCRs [3]; 1 uM
  activity at 1 µM: -1.7%
168 GPCRs [3]; 10 uM
  activity at 10 µM: -1.4%
168 GPCRs [4]; 1 uM
  activity at 1 µM: -4.5%
168 GPCRs [4]; 10 uM
  activity at 10 µM: -5.3%
168 GPCRs [5]; SSTR2, Agonist mode, 10 uM
  activity at 10 µM: 0.7%
168 GPCRs [5]; SSTR2, Agonist, 1 uM
  activity at 1 µM: 0%
168 GPCRs [6]; [21]
  activity at 1 µM: 0.9%
  activity at 10 µM: 1.6%
168 GPCRs [6]; CALCR-RAMP3
  activity at 1 µM: 7.9%
  activity at 10 µM: 7.1%
168 GPCRs [6]; CALCR, read-out: % Activity
  activity at 1 µM: -0.3%
  activity at 10 µM: 0.2%
168 GPCRs [7]; NTSR1, Agonist mode, 10 uM
  activity at 10 µM: -3.5%
168 GPCRs [7]; NTSR1, Agonist, 1 uM
  activity at 1 µM: -4.7%
168 GPCRs [8]; GPR1, Agonist mode, 10 uM
  activity at 10 µM: -0.7%
168 GPCRs [8]; GPR1, Agonist, 1 uM
  activity at 1 µM: -0.5%
168 GPCRs [9]; Agonist mode, 10 uM
  activity at 10 µM: -1.4%
168 GPCRs [9]; Agonist, 1 uM
  activity at 1 µM: -2.6%
168 GPCRs [10]; 1 uM
  activity at 1 µM: -1.2%
168 GPCRs [10]; 10 uM
  activity at 10 µM: -1.1%
168 GPCRs [11]; Agonist mode, 10 uM
  activity at 10 µM: 0.5%
168 GPCRs [11]; Agonist, 1 uM
  activity at 1 µM: 1%
168 GPCRs [12]; Agonist mode, 10 uM
  activity at 10 µM: 0.2%
168 GPCRs [12]; Agonist, 1 uM
  activity at 1 µM: -0.1%
168 GPCRs [13]; 1 uM
  activity at 1 µM: -0.5%
168 GPCRs [13]; 10 uM
  activity at 10 µM: 0.2%
168 GPCRs [14]; OXER1, Agonist mode, 10 uM
  activity at 10 µM: -3.7%
168 GPCRs [14]; OXER1, Agonist, 1 uM
  activity at 1 µM: 3.2%
168 GPCRs [15]; GPR119, Agonist mode, 10 uM
  activity at 10 µM: -2.2%
168 GPCRs [15]; GPR119, Agonist, 1 uM
  activity at 1 µM: -5.8%
168 GPCRs [16]; Agonist mode, 10 uM
  activity at 10 µM: -3.7%
168 GPCRs [16]; Agonist, 1 uM
  activity at 1 µM: -5.5%
168 GPCRs [17]; P2RY11, Agonist mode, 10 uM
  activity at 10 µM: -0.3%
168 GPCRs [17]; P2RY11, Agonist, 1 uM
  activity at 1 µM: 0.5%
168 GPCRs [18]; EDG3, Agonist mode, 10 uM
  activity at 10 µM: -8.6%
168 GPCRs [18]; EDG3, Agonist, 1 uM
  activity at 1 µM: -9.4%
168 GPCRs [19]; Agonist mode, 10 uM
  activity at 10 µM: 2%
168 GPCRs [19]; Agonist, 1 uM
  activity at 1 µM: 1.3%
168 GPCRs [20]; GPR35, Agonist mode, 10 uM
  activity at 10 µM: 2.5%
168 GPCRs [20]; GPR35, Agonist, 1 uM
  activity at 1 µM: 2.2%
